In assay [1] the test system is S6 kinase (S6K1) phosphorylation in C2C12 cells. The assay can be described thus: Phosphorylation of the S6 kinase in C2C12 cells (ELISA pS6K T389), protein synthesis. The format is cell-based, mouse. As to conditions: Mus musculus, C2C12, 2 h; for activity at 10 µM: read-out: Protein synthesis (percentage increase in S6K phosphorylation in muscle cells); for activity: test compounds and 20E reference (10 μM), read-out: S6K1 phosphorylation level. On the procedure:
After several experiments in which the C2C12 cells differentiated into myotubes were incubated in the presence of IGF-1 or 20E for 2 h 30 or 6 h, two screening tests were developed. Thus, the phosphorylation of the S6 protein kinase and the expression of the myostatin gene were studied in order to determine their modulation by a growth hormone or an ecdysone and to characterize these modulations from a statistical point of view.
The C2C12 myoblast cells (ATCC CRL-1772) are seeded into 6-well plates at a density of 170 000 cells per well and cultured in a DMEM medium containing glucose in a proportion of 4.5 g/l and supplemented with fetal calf serum (10%) and with antibiotics (penicillin and streptomycin). Forty-eight hours later, the myoblasts are induced to differentiate by partial serum depletion (2% instead of 10%) for 5 days. The cells are then placed in a medium which is glucose-depleted (DMEM containing 1 g/l of glucose) and serum-free in the presence of the test molecules or of the references (100 ng/ml IGF-1 or 10 μM 20E) for 2 h. At the end of the experiment, the cells are lysed in a commercial lysis buffer (Invitrogen FNN0011) supplemented with a commercial mixture of anti-proteases (Roche 05056489001). After centrifugation, the cytoplasmic fraction containing the soluble proteins is kept and the protein concentration is determined using a commercial kit (Biorad 500-0114), the principle of which is composed of assaying by the Lowry method. The assaying of the S6 kinase phosphorylation is carried out using a commercial ELISA (Enzyme Linked ImmunoSorbent Assay) kit (Cell signaling 7063). Briefly, 50 μg of protein lysate are deposited in the wells of a 96-well microplate and incubated overnight at 4° C. with the solution of antigen specific for the pS6 kinase threonine 389 antibody. The binding of the antigen to the bottom of the wells is done electrostatically. The solution of antibody to be assayed (pS6K T389) is then incubated at 37° C. in the wells for 2 hours. The antibodies bind specifically to the antigen. The wells are then washed with washing buffer in order to remove the antigen-specific primary antibodies to be assayed which are in excess. The third step consists in binding the detection antibody. The solution of detection antibodies is incubated at 37° C. in the wells for 1 hour. The wells are then washed in order to remove the excess detection antibodies. It should be noted that the detection antibodies are coupled to an enzyme which, in the presence of its substrate, converts it into a reaction product that can be detected and measured by virtue of the appearance of a coloration. […] The appearance of a blue coloration in the substrate indicates the presence of the antibody to be assayed. In order to prevent any saturation phenomenon, a stop solution (generally containing […]) is added and brings about a change in coloration, which goes from blue to yellow. The strength thereof is proportional to the amount of enzyme present and thus to the concentration of antibody sought. The strength of the signal is measured using spectrophotometry at a wavelength of 450 nm.
Background: An ELISA detects its analyte on a solid surface through an enzyme-linked reagent.

Assay [2] has as its system myostatin gene expression in C2C12 cells. The assay can be described thus: Inhibition of myostatin expression in C2C12 cells (qPCR). The format is cell-based. Conditions: Mus musculus, percentage myostatin gene expression in cells in contact with the compounds related to control cells, C2C12, 6 h. Summed up:
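C2C12 myoblasts differentiated to myotubes for 5 days in 2% serum, then treated 6 h with compounds in serum-free, low-glucose (1 g/l) DMEM; IGF-1 100 ng/ml as reference. Myostatin mRNA quantified by RT-qPCR, expressed relative to untreated control as R=2^-ΔΔCt.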
A general note: Real-time PCR tracks product formation cycle by cycle.

Results on six compounds are retold here after patent US10316056B2, “Chemical compounds and use thereof for improving muscular quality” (BIOPHYTIS, priority 2014, dated 2019).

SMILES strings stand for the structures.

With `C[C@]12C[C@H](O)[C@H](O)C[C@H]1C(=O)C=C1C2CC[C@]2(C)[C@@H](C(=O)CN3CCC(O)CC3)CC[C@@]12O` (stereo partly drawn) [Compound 88, (2S,3R,5R,10R,13R,14S,17S)-2,3,14-trihydroxy-17-[2-(4-hydroxy-1-piperidyl)acetyl]-10,13-dimethyl-2,3,4,5,9,11,12,15,16,17-decahydro-1H-cyclopenta[a]phenanthren-6-one], in assay [1], the activity at 10 µM was in the range of 110 to 129% and the activity was about 120%. The same compound registered a mrna remaining at 10 µM in assay [2] of 71 to 85%.
Consider `C=CCCC(=O)N(CCOC)C(C)[C@H]1CC[C@@]2(O)C3=CC(=O)[C@@H]4C[C@@H](O)[C@@H](O)C[C@]4(C)C3CC[C@]12C` (stereo partly drawn) [Compound 52, N-(2-methoxyethyl)-N-[1-[(2S,3R,5R,10R,13R,14S,17S)-2,3,14-trihydroxy-10,13-dimethyl-6-oxo-2,3,4,5,9,11,12,15,16,17-decahydro-1H-cyclopenta[a]phenanthren-17-yl]ethyl]pent-4-enamide], for which, in assay [1], the activity at 10 µM was 110 to 129% and the activity was about 120%. In assay [2], this compound had a mrna remaining at 10 µM of under 70%.
Taken in the same sequence, the figures for `CC([C@H]1CC[C@@]2(O)C3=CC(=O)[C@@H]4C[C@@H](O)[C@@H](O)C[C@]4(C)C3CC[C@]12C)N(CC1CCCO1)C(=O)c1ccco1` (stereo partly drawn) [Compound 63, N-(tetrahydrofuran-2-ylmethyl)-N-[1-[(2S,3R,5R,10R,13R,14S,17S)-2,3,14-trihydroxy-10,13-dimethyl-6-oxo-2,3,4,5,9,11,12,15,16,17-decahydro-1H-cyclopenta[a]phenanthren-17-yl]ethyl]furan-2-carboxamide] were 110 to 129%, about 120% and under 70%.
On to `CN(C)CCCN(C)CC(=O)[C@H]1CC[C@@]2(O)C3=CC(=O)[C@@H]4C[C@@H](O)[C@@H](O)C[C@]4(C)C3CC[C@]12C` (stereo partly drawn) [Compound 91, (2S,3R,5R,10R,13R,14S,17S)-17-[2-(3-dimethylaminopropyl(methyl)amino)acetyl]-2,3,14-trihydroxy-10,13-dimethyl-2,3,4,5,9,11,12,15,16,17-decahydro-1H-cyclopenta[a]phenanthren-6-one], for which, in assay [1], the activity at 10 µM is 110 to 129% and the activity is about 120%. In addition, in assay [2], the mrna remaining at 10 µM is 71 to 85%.
Consider `CCOC(=O)CSCC(=O)[C@H]1CC[C@@]2(O)C3=CC(=O)[C@@H]4C[C@@H](O)[C@@H](O)C[C@]4(C)C3CC[C@]12C` (stereo partly drawn) [Compound 92, Ethyl 2-[2-oxo-2-[(2S,3R,5R,10R,13R,14S,17S)-2,3,14-trihydroxy-10,13-dimethyl-6-oxo-2,3,4,5,9,11,12,15,16,17-decahydro-1H-cyclopenta[a]phenanthren-17-yl]ethyl]sulfanylacetate], for which, in assay [1], the activity at 10 µM fell in the range of 110 to 129% and the activity is about 120%. In assay [2], this compound registered a mrna remaining at 10 µM of under 70%.
For the compound `C[C@]12C[C@H](O)[C@H](O)C[C@H]1C(=O)C=C1C2CC[C@]2(C)[C@@H](C(=O)CN3CCC(O)C3)CC[C@@]12O` (stereo partly drawn) [Compound 86, (2S,3R,5R,10R,13R,14S,17S)-2,3,14-trihydroxy-17-[2-(3-hydroxypyrrolidin-1-yl)acetyl]-10,13-dimethyl-2,3,4,5,9,11,12,15,16,17-decahydro-1H-cyclopenta[a]phenanthren-6-one], in assay [1], the activity at 10 µM was over 130% and the activity lay within 130 to 140%. In addition, the mrna remaining at 10 µM in assay [2] was under 70%.
